Where “and” joins values, the source holds several entries; their conditions need not be identical. Identical values can stand only once.
What follows are compounds tested against Plk1 (Homo sapiens, UniProt P53350) (assay: biochemical).
Sequence of Plk1 (P53350 20-338): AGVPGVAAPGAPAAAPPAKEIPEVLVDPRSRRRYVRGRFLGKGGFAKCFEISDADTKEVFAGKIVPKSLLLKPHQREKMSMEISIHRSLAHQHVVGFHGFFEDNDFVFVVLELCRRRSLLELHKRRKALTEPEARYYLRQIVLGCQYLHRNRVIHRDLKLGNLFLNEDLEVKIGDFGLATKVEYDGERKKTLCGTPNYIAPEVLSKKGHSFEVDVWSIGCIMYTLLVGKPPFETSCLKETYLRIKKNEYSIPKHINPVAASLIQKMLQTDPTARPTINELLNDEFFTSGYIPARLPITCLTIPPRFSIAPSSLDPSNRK

`COc1cc(C(=O)NC2CCCCC2)ccc1Nc1ncc2c(n1)N(C1CCCC1)CC(C)(C)C(=O)N2C` [Compound I-133, 4-(9-cyclopentyl-6,7,8,9-tetrahydro-5,7,7-trimethyl-6-oxo-5H-pyrimido[4,5-b][1,4]diazepin-2-ylamino)-N-cyclohexyl-3-methoxybenzamide] and `COc1cc(C(=O)N[C@@H]2CCOC2)ccc1Nc1ncc2c(n1)N(C1CCCC1)CC(C)(C)C(=O)N2C` [Compound I-187, (R)-4-(9-cyclopentyl-5,7,7-trimethyl-6-oxo-6,7,8,9-tetrahydro-5H-pyrimido[4,5-b][1,4]diazepin-2-ylamino)-3-methoxy-N-(tetrahydrofuran-3-yl)benzamide] cannot be ordered by Ki: < 10 nM for the first, < 10 nM for the second.

`COc1cc(C(=O)NCc2ccncc2)ccc1Nc1ncc2c(n1)N(C1CCCC1)CC1(CC1)C(=O)N2C` [Compound I-247, 4-(9′-cyclopentyl-5′-methyl-6′-oxo-5′,6′,8′,9′-tetrahydrospiro[cyclopropane-1,7′-pyrimido[4,5-b][1,4]diazepine]-2′-ylamino)-3-methoxy-N-(pyridin-4-ylmethyl)benzamide] and `COc1cc(C(=O)Nc2cccnc2)ccc1Nc1ncc2c(n1)N(C1CCCC1)CC(C)(C)C(=O)N2C` [Compound I-207, 4-(9-cyclopentyl-5,7,7-trimethyl-6-oxo-6,7,8,9-tetrahydro-5H-pyrimido[4,5-b][1,4]diazepin-2-ylamino)-3-methoxy-N-(pyridin-3-yl)benzamide] cannot be ordered by Ki: < 10 nM for the first, < 10 nM for the second.

`CC[C@H]1CN(C2CCCC2)c2nc(Nc3ccc(C(=O)NC4CCC4)cc3OC)ncc2N(C)C1=O` [Compound I-119, 4-((S)-9-cyclopentyl-7-ethyl-6,7,8,9-tetrahydro-5-methyl-6-oxo-5H-pyrimido[4,5-b][1,4]diazepin-2-ylamino)-N-cyclobutyl-3-methoxybenzamide] and `COc1cc(C(=O)NC2CCN(C)CC2)ccc1Nc1ncc2c(n1)N(C1CCCC1)C[C@@H](C)C(=O)N2C` [Compound I-22, 4-((R)-9-cyclopentyl-6,7,8,9-tetrahydro-5,7-dimethyl-6-oxo-5H-pyrimido[4,5-b][1,4]diazepin-2-ylamino)-3-methoxy-N-(1-methylpiperidin-4-yl)benzamide] cannot be ordered by Ki: < 10 nM for the first, < 10 nM for the second.

`CC(=O)Nc1cc(Nc2ncc3c(n2)N(C2CCCC2)CC(C)(C)C(=O)N3C)ccc1C` [Compound I-162, N-(5-(9-cyclopentyl-6,7,8,9-tetrahydro-5,7,7-trimethyl-6-oxo-5H-pyrimido[4,5-b][1,4]diazepin-2-ylamino)-2-methylphenyl)acetamide] and `CN1C(=O)C(C)(C)CN(C2CCCC2)c2nc(Nc3ccc4c(c3)CC(=O)N4)ncc21` [Compound I-45, 2-(2-oxoindolin-5-ylamino)-9-cyclopentyl-8,9-dihydro-5,7,7-trimethyl-5H-pyrimido[4,5-b][1,4]diazepin-6(7H)-one] fall in the same range of Ki: 10 to 100 nM for the first, 10 to 100 nM for the second.

First: CNC(=O)c1ccc(Nc2ncc3c(n2)N([C@@H]2CCNC2)CC(C)(C)C(=O)N3C)c(OC)c1 [Compound I-19, 4-(6,7,8,9-tetrahydro-5,7,7-trimethyl-6-oxo-9-((R)-pyrrolidin-3-yl)-5H-pyrimido[4,5-b][1,4]diazepin-2-ylamino)-3-methoxy-N-methylbenzamide]
Second: CNC(=O)c1ccc(Nc2ncc3c(n2)N([C@@H]2CCOC2)CC(C)(C)C(=O)N3C)c(OC)c1 [Compound I-181, 4-(6,7,8,9-tetrahydro-9-((R)-tetrahydrofuran-3-yl)-5,7,7-trimethyl-6-oxo-5H-pyrimido[4,5-b][1,4]diazepin-2-ylamino)-3-methoxy-N-methylbenzamide]
The Ki of the first is higher: 10 to 100 nM for the first, < 10 nM for the second.

`COc1cc(C(=O)NCCOC(=O)N2CC[C@@H](F)C2)ccc1Nc1ncc2c(n1)N(C1CCCC1)CC(C)(C)C(=O)N2C` [Compound I-39, (R)-3-Fluoro-pyrrolidine-1-carboxylic acid 2-[4-(9-cyclopentyl-5,7,7-trimethyl-6-oxo-6,7,8,9-tetrahydro-5H-pyrimido[4,5-b][1,4]diazepin-2-ylamino)-3-methoxybenzoylamino]-ethyl ester] and `COc1cc(C(=O)NCCC(C)O)ccc1Nc1ncc2c(n1)N(C1CCCC1)CC(C)(C)C(=O)N2C` (stereo not drawn) [Compound I-243, 4-(9-cyclopentyl-5,7,7-trimethyl-6-oxo-6,7,8,9-tetrahydro-5H-pyrimido[4,5-b][1,4]diazepin-2-ylamino)-N-(3-hydroxybutyl)-3-methoxybenzamide] cannot be ordered by Ki: < 10 nM for the first, < 10 nM for the second.

`COc1cc(C(=O)Nc2cc(C)ns2)ccc1Nc1ncc2c(n1)N(C1CCCC1)CC(C)(C)C(=O)N2C` [Compound I-232, 4-(9-cyclopentyl-5,7,7-trimethyl-6-oxo-6,7,8,9-tetrahydro-5H-pyrimido[4,5-b][1,4]diazepin-2-ylamino)-3-methoxy-N-(3-methylisothiazol-5-yl)benzamide] and `COc1ccc(NC(=O)c2ccc(Nc3ncc4c(n3)N(C3CCCC3)CC(C)(C)C(=O)N4C)c(OC)c2)cc1` [Compound I-261, 4-(9-cyclopentyl-5,7,7-trimethyl-6-oxo-6,7,8,9-tetrahydro-5H-pyrimido[4,5-b][1,4]diazepin-2-ylamino)-3-methoxy-N-(4-methoxyphenyl)benzamide] cannot be ordered by Ki: < 10 nM for the first, < 10 nM for the second.

Compared with `CN1C(=O)C(C)(C)CN(C2CCCC2)c2nc(Nc3ccc4c(c3)CCN4S(C)(=O)=O)ncc21` [Compound I-138, 9-Cyclopentyl-2-(1-methanesulfonyl-2,3-dihydro-1H-indol-5-ylamino)-5,7,7-trimethyl-5,7,8,9-tetrahydro-pyrimido[4,5-b][1,4]diazepin-6-one], `CN1C(=O)C(C)(C)CN(C2CCCC2)c2nc(Nc3ccc(-n4ccnc4)cc3)ncc21` [Compound I-48, 2-(4-(1H-imidazol-1-yl)phenylamino)-9-cyclopentyl-8,9-dihydro-5,7,7-trimethyl-5H-pyrimido[4,5-b][1,4]diazepin-6(7H)-one] is lower in Ki: 10 to 100 nM for the first, < 10 nM for the second. The second binds more tightly here.

`COc1cc(C(=O)NC2CCN(C(C)C)CC2)ccc1Nc1ncc2c(n1)N(C1CCCC1)CC(C)(C)C(=O)N2C` [Compound I-67] and `COc1cc(C(=O)NC2(CO)CC2)ccc1Nc1ncc2c(n1)N(C1CCCC1)CC(C)(C)C(=O)N2C` [Compound I-266] cannot be ordered by Ki: < 10 nM for the first, < 10 nM for the second.

First: CNC(=O)c1ccc(Nc2ncc3c(n2)N(C2CCCC2)C[C@@H](C)C(=O)N3C)c(OC)c1 [Compound I-18, 4-((R)-9-cyclopentyl-6,7,8,9-tetrahydro-5,7-dimethyl-6-oxo-5H-pyrimido[4,5-b][1,4]diazepin-2-ylamino)-3-methoxy-N-methylbenzamide]
Second: COc1cc(C(=O)NC2CCN(C)CC2)ccc1Nc1ncc2c(n1)N(C1CCCC1)[C@H](C)CC(=O)N2C [Compound I-65, 4-((R)-9-cyclopentyl-6,7,8,9-tetrahydro-5,8-dimethyl-6-oxo-5H-pyrimido[4,5-b][1,4]diazepin-2-ylamino)-3-methoxy-N-(1-methylpiperidin-4-yl)benzamide]
The Ki of the first is lower: < 10 nM for the first, 10 to 100 nM for the second. The first binds more tightly here.

In the case of `CNC(=O)c1ccc(Nc2ncc3c(n2)N(CC2CNCCO2)CC(C)(C)C(=O)N3C)c(OC)c1` (stereo not drawn) [Compound I-192, 3-methoxy-N-methyl-4-(5,7,7-trimethyl-9-(morpholin-2-ylmethyl)-6-oxo-6,7,8,9-tetrahydro-5H-pyrimido[4,5-b][1,4]diazepin-2-ylamino)benzamide], the Ki is reported as < 10 nM and 10 to 100 nM.
